Assays:
[1] = rat, in vivo, 10 mg/kg
Method: To unfasted ZDF fatty rats (18 weeks old; n=6), ZDF lean rats (18 weeks old; n=6) and SD rats (14 weeks old; n=3) 10 mg/kg of ^13C6-glucose was orally administered. Expired air samples were collected over time before and after the administration and the Δ^13C values of the samples were measured by GC/MS. Three days after the oral administration, 10 mg/kg of ^13C6-glucose was intravenously administered to the same unfasted rats. Expired air samples were collected over time before and after the administration and the Δ^13C values of the samples were measured by GC/MS.
The AUCs of the Δ^13C values were calculated for the oral administration and the intravenous administration, and the difference of the AUCs was calculated. The difference is shown in FIG. 5 as the amount of hepatic glucose uptake (hepatic extraction). […] The mutation is homozygous in the ZDF fatty rats.

[2] = Blood ^13C6-glucose level and expired air Δ^13C after oral ^13C6-glucose, 7-week-old ZDF fatty vs ZDF lean rats; type: in vivo, rat
Method: (§1) To fasted ZDF fatty rats (7 weeks old; n=4) and ZDF lean rats (7 weeks old; n=4) 10 mg/kg of ^13C6-glucose was orally administered. Blood samples and expired air samples were collected over time before and after the administration. The Δ^13C values of the obtained expired air samples were measured by GC/MS. The ^13C6-glucose levels in the blood samples were measured by LC/MS/MS. The fasting blood glucose levels were measured before the glucose administration.

[3] = Blood ^13C6-glucose level and expired air Δ^13C after oral ^13C6-glucose, 6-week-old ZDF fatty vs ZDF lean rats; type: in vivo, rat
Method: as §1, with “fatty rats (6 weeks old;” for “fatty rats (7 weeks old;”, “lean rats (6 weeks old;” for “lean rats (7 weeks old;”, “of ^13C6-glucose (13C6-Glucose [D-GLUCOSE⋅(U-13C6, 99%)], Cambridge Isotope Laboratories, Inc. (Andover, Mass., USA)) was orally” for “of ^13C6-glucose was orally”

[4] = Blood ^13C6-glucose level and expired air Δ^13C after oral ^13C6-glucose, iLIRKO vs IRflox mice; type: in vivo, mouse
Excerpt: iLIRKO mouse (inducible liver-specific insulin receptor KO mice) can be used as a model for stage B of pre-onset diabetes, the stage of decreased hepatic extraction ratio, because knock out of insulin receptors can be induced only in the liver (Michael M D, et al., Loss of insulin signaling in hepatocytes leads to severe insulin resistance and progressive hepatic dysfunction. Mol Cell 2000; 6 (1): 87-97). To iLIRKO mice (2 to 3 months old, n=5) and IRflox mice (2 to 3 months old, n=5, control) 10 mg/kg of ^13C6-glucose was orally administered. Blood samples and expired air samples were collected over time before and after the administration. The Δ^13C values of the obtained expired air samples were measured by GC/MS. The ^13C6-glucose levels in the blood samples were measured by LC/MS/MS.

[5] = rat, in vivo, po, 10 mg/kg
Method: To unfasted rats (ZDF lean, ZDF fatty, SD, each n=12) 10 mg/kg of ^13C6-glucose was orally administered. […] The blood ^13C6-glucose level was measured by LC/MS/MS.

With `OC[C@H]1OC(O)[C@H](O)[C@@H](O)[C@@H]1O` (stereo partly drawn) [^13C6-glucose, D-GLUCOSE⋅(U-13C6, 99%)] the “amount of hepatic glucose uptake (hepatic extraction), difference of the AUCs of Δ^13C between oral and intravenous administration” value [1] was “high in order of the SD rats, the ZDF lean rats, and the ZDF fatty rats”, the “blood ^13C6 glucose levels” value ([2]; fasted 7-week-old ZDF fatty rats vs ZDF lean rats, 10 mg/kg oral, LC/MS/MS) was “remained higher than those of the ZDF Lean rats” and the “Δ^13C values of the expired air samples” value ([2]; rat, in vivo, po, 10 mg/kg) was “kept higher than those of the ZDF lean rats”. The “blood ^13C6 glucose levels” value ([3]; fasted 6-week-old ZDF fatty rats vs ZDF lean rats, 10 mg/kg oral, LC/MS/MS) was “remained lower than those of the ZDF Lean rats”, the “Δ^13C values of the expired air samples” value ([3]; rat, in vivo, po, 10 mg/kg) was “kept higher than those of the ZDF lean rats” and the “blood ^13C6 glucose levels” value ([4]; iLIRKO mice vs IRflox mice, 10 mg/kg oral, LC/MS/MS) was “kept higher than those of IRflox mice”. The “Δ^13C values of the expired air samples” value ([4]; mouse, in vivo, po, 10 mg/kg) was “kept higher than those of IRflox mice” and the “hepatic extraction ratio of ^13C6-glucose” value [5] was “high in order of the SD rats, the ZDF lean rats, and the ZDF fatty rats”.
